{"source": "patent US11472798B2", "about": "(Mission Therapeutics Limited, priority 2014, dated 2022)", "note": "pIC50: −log10 of the molar value.", "data": [{"target": "T1, UCHL1 (Homo sapiens, UniProt P09936)", "T1 construct": "made in house; host or cells: HEK293T", "T1 sequence (P09936 1-223)": "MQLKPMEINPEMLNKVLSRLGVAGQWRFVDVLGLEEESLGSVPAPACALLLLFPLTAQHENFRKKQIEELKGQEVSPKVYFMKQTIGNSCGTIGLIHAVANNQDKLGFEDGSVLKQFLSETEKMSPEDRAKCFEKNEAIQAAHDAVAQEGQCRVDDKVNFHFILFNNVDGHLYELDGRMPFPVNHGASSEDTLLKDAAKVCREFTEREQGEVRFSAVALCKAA", "assay": "UCHL1 biochemical IC50 assay (fluorescence polarisation)", "details": "30 min enzyme/compound pre-incubation at room temp, read after 2 hr incubation, read-out: Activity range (UCHL1 biochemical IC50 assay)", "method_in_brief": "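Fluorescence polarisation (ex 540/em 590 nm) of 50 nM TAMRA-labelled ubiquitin–peptide isopeptide substrate was read at time zero and after 2 h at room temperature. Compounds (100–0.03 μM final, in duplicate) were given 30 min preincubation with N-FLAG UCHL1 from HEK293T cells in pH 7.5 Tris buffer.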", "values": [{"smiles": "N#CN1CC[C@H](C(=O)Nc2nc3c(s2)CN(Cc2ccccc2)CC3)C1", "note": "[Example 201, (S)—N-(5-benzyl-4,5,6,7-tetrahydrothiazolo[5,4-c]pyridin-2-yl)-1-cyanopyrrolidine-3-carboxamide]", "pIC50": "5.00 to 6.00"}, {"smiles": "N#CN1CC[C@H](C(=O)Nc2cn(Cc3ccccc3)cn2)C1", "note": "[Example 146, (S)—N-(1-benzyl-1H-imidazol-4-yl)-1-cyanopyrrolidine-3-carboxamide]", "pIC50": "> 6.00"}, {"smiles": "Cc1oncc1-c1cccc(-c2ccnc(NC(=O)[C@H]3CCN(C#N)C3)c2)c1", "note": "[Example 290, (S)-1-cyano-N-(4-(3-(5-methylisoxazol-4-yl)phenyl)pyridin-2-yl)pyrrolidine-3-carboxamide]", "pIC50": "> 6.00"}, {"smiles": "N#Cc1ccc(-n2cnc(NC(=O)[C@H]3CCN(C#N)C3)c2)cc1O[C@H]1CCOC1", "note": "[Example 247, (S)-1-cyano-N-(1-(4-cyano-3-(((S)-tetrahydrofuran-3-yl)oxy)phenyl)-1H-imidazol-4-yl)pyrrolidine-3-carboxamide]", "pIC50": "> 6.00"}, {"smiles": "N#Cc1ccc(OCCCN2CCOCC2)cc1-n1cnc(NC(=O)[C@H]2CCN(C#N)C2)c1", "note": "[Example 246, (S)-1-cyano-N-(1-(2-cyano-5-(3-morpholinopropoxy)phenyl)-1H-imidazol-4-yl)pyrrolidine-3-carboxamide]", "pIC50": "> 6.00"}, {"smiles": "C[C@@H](c1ccccc1)n1cnc(NC(=O)[C@H]2CCN(C#N)C2)c1", "note": "[Example 166, (S)-1-cyano-N-(1-((S)-1-phenylethyl)-1H-imidazol-4-yl)pyrrolidine-3-carboxamide]", "pIC50": "> 6.00"}, {"smiles": "N#Cc1ccc(-n2cnc(NC(=O)[C@H]3CCN(C#N)C3)c2)cc1OC1COC1", "note": "[Example 249, (S)-1-cyano-N-(1-(4-cyano-3-(oxetan-3-yloxy)phenyl)-1H-imidazol-4-yl)pyrrolidine-3-carboxamide]", "pIC50": "> 6.00"}, {"smiles": "CC(=O)NCC1CCCCN1c1cnc(NC(=O)C2CCN(C#N)C2)s1", "note": "(stereo not drawn) [Example 93, N-(5-(2-(acetamidomethyl)piperidin-1-yl)thiazol-2-yl)-1-cyanopyrrolidine-3-carboxamide]", "pIC50": "> 6.00"}, {"smiles": "N#CN1CC[C@H](C(=O)Nc2cccc(N3CCCC3)n2)C1", "note": "[Example 106, (S)-1-cyano-N-(6-(pyrrolidin-1-yl)pyridin-2-yl)pyrrolidine-3-carboxamide]", "pIC50": "4.52 to 5.00"}, {"smiles": "CC1(C(=O)Nc2cn(-c3ccccc3)cn2)CCN(C#N)C1", "note": "(stereo not drawn) [Example 79, 1-cyano-3-methyl-N-(1-phenyl-1H-imidazol-4-yl)pyrrolidine-3-carboxamide]", "pIC50": "4.52 to 5.00"}, {"smiles": "COCCn1cc(-c2ccc(-n3cnc(NC(=O)[C@H]4CCN(C#N)C4)c3)cc2)cn1", "note": "[Example 278, (S)-1-cyano-N-(1-(4-(1-(2-methoxyethyl)-1H-pyrazol-4-yl)phenyl)-1H-imidazol-4-yl)pyrrolidine-3-carboxamide]", "pIC50": "> 6.00"}, {"smiles": "N#CN1CC[C@H](C(=O)Nc2cc(-c3ccncc3)ncn2)C1", "note": "[Example 274, (S)-1-cyano-N-(6-(pyridin-4-yl)pyrimidin-4-yl)pyrrolidine-3-carboxamide]", "pIC50": "5.00 to 6.00"}, {"smiles": "Cn1cccc(C(=O)N2CCc3nc(NC(=O)[C@H]4CCN(C#N)C4)sc3C2)c1=O", "note": "[Example 195, (S)-1-cyano-N-(5-(1-methyl-2-oxo-1,2-dihydropyridine-3-carbonyl)-4,5,6,7-tetrahydrothiazolo[5,4-c]pyridin-2-yl)pyrrolidine-3-carboxamide]", "pIC50": "> 6.00"}, {"smiles": "Cc1noc(C)c1-c1ccc2sc(NC(=O)C3CCN(C#N)C3)nc2c1", "note": "(stereo not drawn) [Example 119, 1-cyano-N-(5-(3,5-dimethylisoxazol-4-yl)benzo[d]thiazol-2-yl)pyrrolidine-3-carboxamide]", "pIC50": "5.00 to 6.00"}, {"smiles": "N#CN1CC[C@H](C(=O)Nc2ncc(N3CCCCC3)s2)C1", "note": "[Example 96, (S)-1-cyano-N-(5-(piperidin-1-yl)thiazol-2-yl)pyrrolidine-3-carboxamide]", "pIC50": "> 6.00"}, {"smiles": "COCCn1ncc2cc(-c3cnc(NC(=O)[C@H]4CCN(C#N)C4)s3)ccc21", "note": "[Example 227, (S)-1-cyano-N-(5-(1-(2-methoxyethyl)-1H-indazol-5-yl)thiazol-2-yl)pyrrolidine-3-carboxamide]", "pIC50": "> 6.00"}, {"smiles": "COc1ccccc1-n1cnc(NC(=O)[C@H]2CCN(C#N)C2)c1", "note": "[Example 160, (S)-1-cyano-N-(1-(2-methoxyphenyl)-1H-imidazol-4-yl)pyrrolidine-3-carboxamide]", "pIC50": "> 6.00"}, {"smiles": "Cc1noc(C)c1-c1ccc2cnc(NC(=O)[C@H]3CCN(C#N)C3)cc2c1", "note": "[Example 261, (S)-1-cyano-N-(6-(3,5-dimethylisoxazol-4-yl)isoquinolin-3-yl)pyrrolidine-3-carboxamide]", "pIC50": "> 6.00"}, {"smiles": "CC1CC(C(=O)Nc2cn(-c3ccccc3)cn2)CN1C#N", "note": "(mixture of isomers) [Example 89, I-cyano-5-methyl-N-(1-phenyl-1H-imidazol-4-yl)pyrrolidine-3-carboxamide]", "pIC50": "4.52 to 5.00"}, {"smiles": "N#CN1CC[C@H](C(=O)Nc2cn(-c3ccccc3)nn2)C1", "note": "[Example 44, (S)-1-cyano-N-(1-phenyl-1H-1,2,3-triazol-4-yl)pyrrolidine-3-carboxamide]", "pIC50": "5.00 to 6.00"}, {"smiles": "CC(C)S(=O)(=O)N1CCc2nc(NC(=O)[C@H]3CCN(C#N)C3)sc2C1", "note": "[Example 203, (S)-1-cyano-N-(5-(isopropylsulfonyl)-4,5,6,7-tetrahydrothiazolo[5,4-c]pyridin-2-yl)pyrrolidine-3-carboxamide]", "pIC50": "> 6.00"}, {"smiles": "Cn1cc(-c2ccc3nc(NC(=O)[C@H]4CCN(C#N)C4)sc3c2)cn1", "note": "[Example 124, (S)-1-cyano-N-(6-(1-methyl-1H-pyrazol-4-yl)benzo[d]thiazol-2-yl)pyrrolidine-3-carboxamide]", "pIC50": "> 6.00"}, {"smiles": "N#CN1CC[C@H](C(=O)Nc2cn(Cc3ccncc3)cn2)C1", "note": "[Example 170, (S)-1-cyano-N-(1-(pyridin-4-ylmethyl)-1H-imidazol-4-yl)pyrrolidine-3-carboxamide]", "pIC50": "> 6.00"}, {"smiles": "N#CN1CC[C@H](C(=O)Nc2cc(N3CCCC3)ccn2)C1", "note": "[Example 107, (S)-1-cyano-N-(4-(pyrrolidin-1-yl)pyridin-2-yl)pyrrolidine-3-carboxamide]", "pIC50": "5.00 to 6.00"}, {"smiles": "C[C@@H]1CN(C#N)C[C@H]1C(=O)Nc1ncc(N2CCCCC2)s1", "note": "(racemic) [Example 104, (±)-trans-1-cyano-4-methyl-N-(5-(piperidin-1-yl)thiazol-2-yl)pyrrolidine-3-carboxamide]", "pIC50": "> 6.00"}, {"smiles": "N#CN1CCC(C(=O)Nc2ncc(-c3ccc(N)cc3)s2)C1", "note": "(stereo not drawn) [Example 111, N-(5-(4-aminophenyl)thiazol-2-yl)-1-cyanopyrrolidine-3-carboxamide]", "pIC50": "> 6.00"}, {"smiles": "C[C@@H]1CN(C#N)C[C@H]1C(=O)Nc1cn(-c2ccccc2)cn1", "note": "[Example 85, (f)-1-cyano-4-methyl-N-(1-phenyl-1H-imidazol-4-yl)pyrrolidine-3-carboxamide]", "pIC50": "5.00 to 6.00"}, {"smiles": "N#CN1CCC(C(=O)Nc2ccc(Cl)cn2)C1", "note": "(stereo not drawn) [Example 25, N-(5-chloropyridin-2-yl)-1-cyano-pyrrolidine-3-carboxamide]", "pIC50": "4.52 to 5.00"}, {"smiles": "COCCOc1cc(-n2cnc(NC(=O)[C@H]3CCN(C#N)C3)c2)ccc1C#N", "note": "[Example 243, (S)-1-cyano-N-(1-(4-cyano-3-(2-methoxyethoxy)phenyl)-1H-imidazol-4-yl)pyrrolidine-3-carboxamide]", "pIC50": "> 6.00"}, {"smiles": "N#CN1CCC(C(=O)Nc2ccc(-c3cccnc3)cn2)C1", "note": "(stereo not drawn) [Example 33, N-([3,3′-bipyridin]-6-yl)-1-cyano-pyrrolidine-3-carboxamide]", "pIC50": "5.00 to 6.00"}, {"smiles": "N#Cc1ccc(-c2cnc(NC(=O)[C@H]3CCN(C#N)C3)s2)cc1F", "note": "[Example 214, (S)-1-cyano-N-(5-(4-cyano-3-fluorophenyl)thiazol-2-yl)pyrrolidine-3-carboxamide]", "pIC50": "> 6.00"}, {"smiles": "CN1CCc2nc(NC(=O)[C@H]3CCN(C#N)C3)sc2C1", "note": "[Example 200, (S)-1-cyano-N-(5-methyl-4,5,6,7-tetrahydrothiazolo[5,4-c]pyridin-2-yl)pyrrolidine-3-carboxamide]", "pIC50": "5.00 to 6.00"}, {"smiles": "Cc1noc(C)c1-c1ccc2nc(NC(=O)[C@H]3CCN(C#N)[C@H]3C)sc2c1", "note": "[Example 133, (2S,3S)-1-cyano-N-(6-(3,5-dimethylisoxazol-4-yl)benzo[d]thiazol-2-yl)-2-methyl-pyrrolidine-3-carboxamide]", "pIC50": "> 6.00"}, {"smiles": "COC[C@H]1CCCN1c1cnc(NC(=O)[C@H]2CCN(C#N)C2)s1", "note": "[Example 99, (S)-1-cyano-N-(5-((R)-2-(methoxymethyl)pyrrolidin-1-yl)thiazol-2-yl)pyrrolidine-3-carboxamide]", "pIC50": "> 6.00"}, {"smiles": "CC(C)(C)c1cc(NC(=O)C2CCN(C#N)C2)[nH]n1", "note": "(stereo not drawn) [Example 17, N-(3-(tert-butyl)-1H-pyrazol-5-yl)-1-cyano-pyrrolidine-3-carboxamide]", "pIC50": "5.00 to 6.00"}, {"smiles": "N#CN1CC[C@H](C(=O)Nc2cc(-c3ccnc4ccnn34)ccn2)C1", "note": "[Example 251, (S)-1-cyano-N-(4-(pyrazolo[1,5-a]pyrimidin-7-yl)pyridin-2-yl)pyrrolidine-3-carboxamide]", "pIC50": "> 6.00"}, {"smiles": "N#CN1CCC(C(=O)Nc2nc(-c3ccccc3)cs2)C1", "note": "(stereo not drawn) [Example 9, 1-cyano-N-(4-phenylthiazol-2-yl)pyrrolidine-3-carboxamide]", "pIC50": "4.52 to 5.00"}, {"smiles": "N#CN1CC[C@H](C(=O)Nc2cnc3ccccc3c2)C1", "note": "[Example 272, (S)-1-cyano-N-(quinolin-3-yl)pyrrolidine-3-carboxamide]", "pIC50": "5.00 to 6.00"}, {"smiles": "CC(NS(=O)(=O)c1ccc(NC(=O)[C@H]2CCN(C#N)C2)nc1)c1ccccc1", "note": "(stereo partly drawn) [Example 207, (3S)-1-cyano-N-(5-(N-(1-phenylethyl)sulfamoyl)pyridin-2-yl)pyrrolidine-3-carboxamide]", "pIC50": "5.00 to 6.00"}]}]}
